In series [1] the target is T1, beta-catenin-B-cell lymphoma 9 protein complex (Homo sapiens, UniProt P35222).
T1 sequence (P35222 whole entry): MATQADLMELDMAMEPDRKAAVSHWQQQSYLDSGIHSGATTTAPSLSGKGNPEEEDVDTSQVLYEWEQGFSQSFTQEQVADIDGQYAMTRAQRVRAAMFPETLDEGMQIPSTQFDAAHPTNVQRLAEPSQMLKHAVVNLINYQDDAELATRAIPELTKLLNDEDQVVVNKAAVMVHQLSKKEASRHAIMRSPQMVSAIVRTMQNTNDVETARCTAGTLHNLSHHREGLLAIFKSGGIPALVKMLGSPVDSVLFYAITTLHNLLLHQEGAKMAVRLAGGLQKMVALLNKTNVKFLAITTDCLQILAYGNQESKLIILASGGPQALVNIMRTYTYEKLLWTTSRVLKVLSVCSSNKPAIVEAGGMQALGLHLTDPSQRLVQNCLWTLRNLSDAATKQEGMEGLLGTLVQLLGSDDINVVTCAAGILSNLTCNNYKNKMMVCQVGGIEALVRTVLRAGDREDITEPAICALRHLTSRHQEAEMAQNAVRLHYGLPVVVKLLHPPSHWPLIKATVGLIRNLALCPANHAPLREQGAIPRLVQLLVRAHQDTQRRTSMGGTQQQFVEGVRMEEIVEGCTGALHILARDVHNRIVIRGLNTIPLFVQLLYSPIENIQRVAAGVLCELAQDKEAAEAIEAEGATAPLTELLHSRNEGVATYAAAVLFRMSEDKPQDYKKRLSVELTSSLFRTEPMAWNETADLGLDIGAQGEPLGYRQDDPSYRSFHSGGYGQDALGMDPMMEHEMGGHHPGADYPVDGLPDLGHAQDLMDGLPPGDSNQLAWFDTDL
T1 sequence (O00512 whole entry): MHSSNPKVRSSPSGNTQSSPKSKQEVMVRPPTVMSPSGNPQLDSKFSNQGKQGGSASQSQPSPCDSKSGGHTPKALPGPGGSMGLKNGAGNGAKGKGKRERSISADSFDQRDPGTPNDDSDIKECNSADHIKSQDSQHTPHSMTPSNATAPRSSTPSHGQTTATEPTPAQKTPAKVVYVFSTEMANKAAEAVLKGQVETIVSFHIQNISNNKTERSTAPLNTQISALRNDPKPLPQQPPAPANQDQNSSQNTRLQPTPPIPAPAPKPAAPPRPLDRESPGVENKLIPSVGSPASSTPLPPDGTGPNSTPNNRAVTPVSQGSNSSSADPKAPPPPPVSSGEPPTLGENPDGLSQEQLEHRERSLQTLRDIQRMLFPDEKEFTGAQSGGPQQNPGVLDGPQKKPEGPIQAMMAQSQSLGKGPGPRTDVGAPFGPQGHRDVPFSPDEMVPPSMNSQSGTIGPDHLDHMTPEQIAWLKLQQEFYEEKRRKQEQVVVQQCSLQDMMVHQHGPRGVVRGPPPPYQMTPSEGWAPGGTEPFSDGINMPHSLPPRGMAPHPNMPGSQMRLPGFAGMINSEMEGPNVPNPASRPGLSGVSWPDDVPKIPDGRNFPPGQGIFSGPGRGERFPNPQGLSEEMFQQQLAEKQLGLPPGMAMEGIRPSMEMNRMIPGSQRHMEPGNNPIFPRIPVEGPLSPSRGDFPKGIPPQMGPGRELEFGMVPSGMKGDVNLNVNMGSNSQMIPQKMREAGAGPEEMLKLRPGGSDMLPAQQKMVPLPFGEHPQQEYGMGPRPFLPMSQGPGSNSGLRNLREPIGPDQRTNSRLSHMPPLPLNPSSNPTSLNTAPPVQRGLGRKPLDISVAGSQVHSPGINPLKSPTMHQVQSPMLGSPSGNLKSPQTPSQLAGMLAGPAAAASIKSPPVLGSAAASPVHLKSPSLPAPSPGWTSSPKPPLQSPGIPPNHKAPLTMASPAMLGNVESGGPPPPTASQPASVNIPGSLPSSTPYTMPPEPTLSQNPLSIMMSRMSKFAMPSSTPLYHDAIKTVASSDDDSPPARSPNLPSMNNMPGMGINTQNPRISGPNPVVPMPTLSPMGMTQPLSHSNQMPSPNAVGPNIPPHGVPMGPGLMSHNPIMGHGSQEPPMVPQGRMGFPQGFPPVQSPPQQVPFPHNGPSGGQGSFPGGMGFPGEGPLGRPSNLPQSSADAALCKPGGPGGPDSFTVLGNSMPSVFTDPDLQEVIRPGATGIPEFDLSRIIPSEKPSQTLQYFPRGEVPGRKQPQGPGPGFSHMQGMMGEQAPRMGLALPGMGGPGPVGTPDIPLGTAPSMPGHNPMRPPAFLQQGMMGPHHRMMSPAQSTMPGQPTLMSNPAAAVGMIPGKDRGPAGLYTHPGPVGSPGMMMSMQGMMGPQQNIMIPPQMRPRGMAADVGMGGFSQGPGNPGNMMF
Put plainly: Inhibition of C-terminal 6-His-tagged beta-catenin (1 to 781 residues) (unknown origin) expressed in Escherichia coli BL21 (DE3)-N-terminal biotinylated human BCL9 (350 to 375 residues) protein-protein interaction incubated for 1 hr by Alphascreen assay. Background: Bead proximity is the source of the signal in Alpha formats.

For series [2], the target named is T1, beta-catenin-B-cell lymphoma 9 protein complex. Nature of the series: Inhibition of N-terminal 6-His-tagged beta-catenin (1 to 781 residues) (unknown origin) expressed in Escherichia coli BL21 (DE3)-N-terminal biotinylated human BCL9 (350 to 375 residues) protein-protein interaction incubated for 1 hr by Alphascreen assay.
The target in a further series is T2, Catenin beta-1 (Homo sapiens, UniProt P35222).
T2 sequence (P35222 whole entry): T1 sequence (P35222 whole entry)
Nature of the series: Inhibition of beta-catenin (unknown origin) transfected in HEK293 cells cotransfected with pCMV-RL assessed as reduction in luciferase activity measured after 24 hrs by TOPFlash luciferase reporter assay. The series is classed as cell-based. A general note: Reporter assays use an easily measured gene product as a stand-in for the process of interest.

Another series relates to HCT-116. Put plainly: cells. The following applies: Homo sapiens, HCT-116, 72 h.
For the next series, the system named is SW480. Nature of the series: cells. The following applies: Homo sapiens, SW480, 72 h.
The next series has as its system MCF-10A. Put plainly: cells. The conditions noted are these: Homo sapiens, 72 h.
For the next series, the system named is MDA-MB-231. Put plainly: cells. The following applies: Homo sapiens, MDA-MB-231, 72 h.
The subject of another series is MDA-MB-468. Put plainly: cells. The following applies: Homo sapiens, MDA-MB-468, 72 h.
Series [3] is described as follows: Intrinsic clearance in mouse liver microsomes at 1 uM measured up to 60 mins in presence of NADPH by LC-MS/SM analysis. The series is classed as ADME, Microsome. The following applies: 1 h. Background: Liver microsomes are vesicles of endoplasmic reticulum, rich in cytochrome P450 enzymes.
A short description of series [4]: Half life in human liver microsomes at 1 uM measured up to 60 mins in presence of NADPH by LC-MS/SM analysis. The format is ADME, Microsome. The conditions noted are these: 1 h.
Series [5] is described as follows: Half life in mouse liver microsomes at 1 uM measured up to 60 mins in presence of NADPH by LC-MS/SM analysis. The format is ADME, Microsome. The following applies: 1 h.
Series [6] is described as follows: Intrinsic clearance in human liver microsomes at 1 uM measured up to 60 mins in presence of NADPH by LC-MS/SM analysis. The format is ADME, Microsome.

These results are taken from ChEMBL document CHEMBL4840323, “Discovery of an Orally Bioavailable Small-Molecule Inhibitor for the β-Catenin/B-Cell Lymphoma 9 Protein-Protein Interaction” (J Med Chem, 2021).

The structures appear in SMILES notation. Some results are limits rather than exact numbers.

The term IC50 denotes the point on the concentration scale where inhibition reaches its midpoint. A word on the Ki: it is the equilibrium dissociation constant of an inhibitor or competing ligand from its target.

Description for HCT-116: Antiproliferative activity against human HCT-116 cells assessed as cell growth inhibition measured after 72 hrs by MTS assay
Description for MCF-10A: Cytotoxicity against human MCF-10A cells assessed as cell growth inhibition measured after 72 hrs by MTS assay
Description for MDA-MB-231: Antiproliferative activity against human MDA-MB-231 cells assessed as cell growth inhibition measured after 72 hrs by MTS assay
Description for MDA-MB-468: Antiproliferative activity against human MDA-MB-468 cells assessed as cell growth inhibition measured after 72 hrs by MTS assay
Description for SW480: Antiproliferative activity against human SW480 cells assessed as cell growth inhibition measured after 72 hrs by MTS assay

Take `CC(C)c1ccc(CNC(=O)[C@H]2CCCN(c3cccc(OC(C)(C)C(=O)O)c3)C2)cc1`: the IC50 in series [1] was > 100 µM. In [2], the inhibition constant Ki was > 90 µM.

Turning to `CN1CCN(C(=O)C(C)(C)Oc2cccc(N3CCC[C@@H](C(=O)N(Cc4ccc(-c5cn[nH]c5)cc4)C4CC4)C3)c2)CC1`, the IC50 is 39 µM in series [1] and > 200 µM on Catenin beta-1. The same molecule showed a Ki in [2] of 32 µM.

In turn, `CC(C)c1ccc(CN(C)C(=O)[C@@H]2CCCN(c3cccc(OC(C)(C)C(=O)N4CCNCC4)c3)C2)cc1` displayed an IC50 in [1] of 15 µM. Also, the Ki in series [2] is 14 µM.

Turning to `Cc1cc(-c2ncc(CC(=O)Nc3ccc(-c4cnccn4)cn3)cc2C)ccn1` [WNT-974], the IC50 in the series on HCT-116, with SW480, with MCF-10A, with MDA-MB-231 and in the series on MDA-MB-468 was > 100 µM throughout.

`CC(C)c1ccc(CN(C(=O)[C@@H]2CCCN(c3cccc(OC(C)(C)C(=O)N4CCNCC4)c3)C2)C2CC2)cc1` displayed an IC50 in series [1] of 3 µM. This molecule returned a Ki in [2] of 2.7 µM.

As for `CC(C)c1ccc(CN(C(=O)[C@@H]2CCCN(c3cccc(OC(C)(C)C(=O)N4CCNCC4)c3)C2)C(C)C)cc1`, in series [1], the IC50 was determined as 5.1 µM. This molecule also came in with an inhibitory constant (Ki) in series [2] of 4.6 µM.

The molecule `CC(C)(Oc1cccc(N2CCC[C@@H](C(=O)N(Cc3ccc(-c4ccn[nH]4)cc3)C3CC3)C2)c1)C(=O)N1CCNCC1` came in with an IC50 in series [1] of 8.9 µM. The molecule further displayed an inhibition constant (Ki) in series [2] of 8 µM.

Take `Cn1cc(-c2ccc(CN(C(=O)[C@@H]3CCCN(c4cccc(OC(C)(C)C(=O)N5CCNCC5)c4)C3)C3CC3)cc2)cn1`: half-maximal inhibition in series [1] (IC50) was put at 76 µM. The molecule further had a Ki in series [2] of 68 µM.

`CC(C)(Oc1cccc(N2CCC[C@@H](C(=O)N(Cc3ccc(-c4ccccc4)cc3)C3CC3)C2)c1)C(=O)N1CCNCC1` yielded a concentration for half-maximal inhibition (IC50) in series [1] of 4.5 µM. Affinity in series [2] was put at a Ki of 4 µM.

Turning to `O=C1[C@H](Cc2ccc(O)cc2)N2C(=O)CCN(C(=O)NCc3ccccc3)[C@H]2CN1Cc1cccc2ccccc12`, the IC50 in the series on HCT-116 was determined as 38 µM; in the series on SW480, 6.1 µM; in the series with MCF-10A, 21 µM; in the series on MDA-MB-231, 7.2 µM; in the series on MDA-MB-468, 31 µM.

As to `CCN(Cc1ccc(C(C)C)cc1)C(=O)[C@@H]1CCCN(c2cccc(OC(C)(C)C(=O)N3CCNCC3)c2)C1`, the IC50 in series [1] came to 12 µM. Moreover, in [2], the Ki amounted to 11 µM.

`CC(C)(Oc1cccc(N2CCC[C@@H](C(=O)N(Cc3ccc(-c4ccccn4)cc3)C3CC3)C2)c1)C(=O)N1CCNCC1` yielded a half-maximal inhibitory concentration (IC50) in series [1] of 59 µM. For the same molecule, the Ki in series [2] is 54 µM.

In turn, `CC(C)(Oc1cccc(N2CCC[C@@H](C(=O)N(Cc3ccc(-c4ccncc4)cc3)C3CC3)C2)c1)C(=O)N1CCNCC1` showed an IC50 in series [1] of 82 µM. For the same molecule, the Ki in [2] is 74 µM.

In series [1], `CC(C)(Oc1cccc(N2CCC[C@@H](C(=O)N(Cc3ccc(-c4cn[nH]c4)cc3)C3CC3)C2)c1)C(=O)N1CCCCC1` showed an IC50 of 53 µM. In series [2], this molecule had a Ki of 43 µM.

On to `CC(C)(Oc1cccc(N2CCC[C@@H](C(=O)N(Cc3ccc(-c4cccnc4)cc3)C3CC3)C2)c1)C(=O)N1CCNCC1`, for which the half-inhibitory concentration (IC50) in series [1] was 73 µM. The molecule also yielded a Ki in series [2] of 66 µM.

In turn, `CC(C)(Oc1cccc(N2CCC[C@@H](C(=O)N(Cc3ccc(C(C)(C)C)cc3)C3CC3)C2)c1)C(=O)N1CCNCC1` returned an IC50 in [1] of 14 µM. In [2], this molecule yielded a Ki of 13 µM.

Consider `CCN(Cc1ccc(-c2cn[nH]c2)cc1)C(=O)[C@@H]1CCCN(c2cccc(OC(C)(C)C(=O)N3CCNCC3)c2)C1.Cl`, for which, in [3], the CLint was 90 µL/min/mg. The t1/2 worked out at 28.3 min in series [4] and 7.7 min in [5]. The CLint at 1 h, 1 µM in series [6] was determined as 24 µL/min/mg.

With `CCN(CC)CCNC(=O)c1c(C)[nH]c(/C=C2\C(=O)Nc3ccc(F)cc32)c1C` [SUNITINIB], the CLint in series [3] was determined as 53 µL/min/mg. In series [5], the t1/2 was determined as 13 min.

For `CC(C)c1ccc(CNC(=O)[C@@H]2CCCN(c3cccc(OC(C)(C)C(=O)N4CCNCC4)c3)C2)cc1`, the IC50 in series [1] was determined as 6.4 µM. Besides, the Ki in series [2] turned out to be 5.8 µM.

In [1], `CC(C)(Oc1cccc(N2CCC[C@@H](C(=O)N(Cc3ccc(-c4ccsc4)cc3)C3CC3)C2)c1)C(=O)N1CCNCC1` came in with a half-inhibitory concentration (IC50) of 5.5 µM. This molecule came in with a Ki in series [2] of 5 µM.

Consider `CCOCCN(Cc1ccc(-c2cn[nH]c2)cc1)C(=O)[C@@H]1CCCN(c2cccc(OC(C)(C)C(=O)N3CCNCC3)c2)C1`, for which the IC50 in series [1] was determined as 2.1 µM. This molecule also came in with an inhibitory constant (Ki) in series [2] of 1.9 µM.

For the molecule `CC(C)c1ccc(CNC(=O)[C@@H]2CCCN(c3cccc(OC(C)(C)C(=O)O)c3)C2)cc1`, the IC50 in series [1] was determined as 51 µM. Moreover, the affinity in series [2] corresponds to a Ki of 46 µM.

In series [1], `CC(C)(Oc1cccc(N2CCC[C@@H](C(=O)N(Cc3ccc(C4CCCCC4)cc3)C3CC3)C2)c1)C(=O)N1CCNCC1` gave an IC50 of 5.3 µM. The same molecule registered an inhibition constant (Ki) in series [2] of 4.8 µM.
